Columns and labels:
Type in all cases: in vivo
[1] = Comparative experiment, compound 1.049 versus Compound C1, (%) phytotoxicity observed (Table B2); conditions: rate 31 g/ha; for (%) phytotoxicity observed, POST Application ECHCG / (%) phytotoxicity observed, PRE Application ECHCG: Echinochloa crus-galli (ECHCG); for (%) phytotoxicity observed, POST Application SETFA / (%) phytotoxicity observed, PRE Application SETFA: Setaria faberi (SETFA)
Description: Seeds of a variety of test species are sown in standard soil in pots (Lolium perenne (LOLPE), Amaranthus retoflexus (AMARE), Abutilon theophrasti (ABUTH), Setaria faberi (SETFA), Echinochloa crus-galli (ECHCG), Ipomoea hederacea (IPOHE)). After cultivation for one day (pre-emergence) or after 8 days cultivation (post-emergence) under controlled conditions in a glasshouse (at 24/16° C., day/night; 14 hours light; 65% humidity), the plants are sprayed with an aqueous spray solution derived from the formulation of the technical active ingredient in acetone/water (50:50) solution containing 0.5% Tween 20 (polyoxyethelyene sorbitan monolaurate, CAS RN 9005-64-5). Compounds are applied at […] unless otherwise indicated. The test plants are then grown in a glasshouse under controlled conditions in a glasshouse (at 24/16° C., day/night; 14 hours light; 65% humidity) and watered twice daily. After 13 days for pre and post-emergence, the test is evaluated for the percentage damage caused to the plant. The biological activities are shown in the following table on a five point scale (5=80-100%; 4=60-79%; 3=40-59%; 2=20-39%; 1=0-19%). [table]

[2] = test system: Ipomoea hederacea (IPOHE); assay: Post-emergence herbicidal glasshouse test, Ipomoea hederacea (IPOHE); conditions: 500 g/h, evaluated after 13 days
Procedure, shortened: (§1)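 Plants sprayed 1 day (pre-emergence) or 8 days (post-emergence) after sowing, at 500 g/h unless indicated, in acetone/water (50:50) with 0.5% Tween 20. Glasshouse 24/16 °C, 14 h light, 65% humidity. Damage scored at 13 days on a five-point scale (5=80-100% to 1=0-19%).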

[3] = test system: Abutilon theophrasti (ABUTH); assay: Post-emergence herbicidal glasshouse test, Abutilon theophrasti (ABUTH); conditions: 500 g/h, evaluated after 13 days
Procedure, shortened: as §1

Setaria faberi (SETFA) [4] = assay: Post-emergence herbicidal glasshouse test, Setaria faberi (SETFA); conditions: 500 g/h, evaluated after 13 days
Procedure, shortened: as §1

[5] = test system: Amaranthus retoflexus (AMARE); assay: Pre-emergence herbicidal glasshouse test, Amaranthus retoflexus (AMARE); conditions: 500 g/h, evaluated after 13 days
Procedure, shortened: as §1

[6] = test system: Abutilon theophrasti (ABUTH); assay: Pre-emergence herbicidal glasshouse test, Abutilon theophrasti (ABUTH); conditions: 500 g/h, evaluated after 13 days
Procedure, shortened: as §1

[7] = test system: Echinochloa crus-galli (ECHCG); assay: Post-emergence herbicidal glasshouse test, Echinochloa crus-galli (ECHCG); conditions: 500 g/h, evaluated after 13 days
Procedure, shortened: as §1

Setaria faberi (SETFA) [8] = assay: Pre-emergence herbicidal glasshouse test, Setaria faberi (SETFA); conditions: 500 g/h, evaluated after 13 days
Procedure, shortened: as §1

[9] = test system: Echinochloa crus-galli (ECHCG); assay: Pre-emergence herbicidal glasshouse test, Echinochloa crus-galli (ECHCG); conditions: 500 g/h, evaluated after 13 days
Procedure, shortened: as §1

[10] = test system: Amaranthus retoflexus (AMARE); assay: Post-emergence herbicidal glasshouse test, Amaranthus retoflexus (AMARE); conditions: 500 g/h, evaluated after 13 days
Procedure, shortened: as §1

[11] = test system: Ipomoea hederacea (IPOHE); assay: Pre-emergence herbicidal glasshouse test, Ipomoea hederacea (IPOHE); conditions: 500 g/h, evaluated after 13 days
Procedure, shortened: as §1

| SMILES | (%) phytotoxicity observed, POST Application ECHCG [1] [%] | (%) phytotoxicity observed, PRE Application ECHCG [1] [%] | (%) phytotoxicity observed, POST Application SETFA [1] [%] | (%) phytotoxicity observed, PRE Application SETFA [1] [%] | POST Application IPOHE, percentage damage (five point scale) [2] | POST Application ABUTH, percentage damage (five point scale) [3] | POST Application SETFA, percentage damage (five point scale) (Setaria faberi (SETFA) [4]) | PRE Application AMARE, percentage damage (five point scale) [5] | PRE Application ABUTH, percentage damage (five point scale) [6] | POST Application ECHCG, percentage damage (five point scale) [7] | PRE Application SETFA, percentage damage (five point scale) (Setaria faberi (SETFA) [8]) | PRE Application ECHCG, percentage damage (five point scale) [9] | POST Application AMARE, percentage damage (five point scale) [10] | PRE Application IPOHE, percentage damage (five point scale) [11] |
| --- | --- | --- | --- | --- | --- | --- | --- | --- | --- | --- | --- | --- | --- | --- |
| Cn1nnnc1NC(=O)c1ccc(C(F)(F)F)c(N)c1Cl [Cl] | 0 | 0 | 20 | 0 | – | – | – | – | – | – | – | – | – | – |
| CN(C)C=Nc1c(C(F)(F)F)ccc(C(=O)Nc2nnnn2C)c1Cl [Compound 1.049] | 90 | 90 | 90 | 90 | 5 (5=80-100%) | 5 (5=80-100%) | 5 (5=80-100%) | 5 (5=80-100%) | 5 (5=80-100%) | 5 (5=80-100%) | 5 (5=80-100%) | 5 (5=80-100%) | 5 (5=80-100%) | 5 (5=80-100%) |
| CCN(C=Nc1c(S(C)(=O)=O)ccc(C(=O)Nc2nnnn2C)c1C)CC [Compound 1.031] | – | – | – | – | 5 (5=80-100%) | 5 (5=80-100%) | 5 (5=80-100%) | 5 (5=80-100%) | 5 (5=80-100%) | 5 (5=80-100%) | 5 (5=80-100%) | 5 (5=80-100%) | 5 (5=80-100%) | 4 (4=60-79%) |

— US11272709B2, “Amidine substituted benzoyl derivatives useful as herbicides” (Syngenta Participations AG, priority 2018, dated 2022)
